Earlier results, collected in publication PMC6974622, “DeepMalaria: Artificial Intelligence Driven Discovery of Potent Antiplasmodials” (Frontiers in Pharmacology, 2020).
Values joined by “and” are separate entries in the source; they are usually repeats but may differ in a detail not shown here. Identical values can stand only once.

Test system: 3D7
Design: unit not given here
Settings: cited from earlier work
For `COc1cc2ncnc(Nc3ccc(F)c(Cl)c3)c2cc1OCCCN1CCOCC1` [Geftinib], the 3D7 is listed as 67.6.
In the case of `CN(C)c1ccc(C(=C2C=CC(=[N+](C)C)C=C2)c2ccccc2)cc1` [Malachite green], the 3D7 is given as 86.9.
For `CNCCCC12CCC(c3ccccc31)c1ccccc12` [Maprotiline], the 3D7 is listed as 62.7.
For `COC(=O)C1=C(C)NC(C)=C(C(=O)OCCCN2CCC(c3ccccc3)(c3ccccc3)CC2)[C@H]1c1cccc([N+](=O)[O-])c1` [Niguldipine], the 3D7 is given as 89.3.
In the case of `CN1CCN(CCCN2c3ccccc3Sc3ccc(Cl)cc32)CC1` [Prochlorperazine edisylate], the 3D7 is given as 73.3.
In the case of `OCc1cc(C(O)CNCCCCCCOCCCCc2ccccc2)ccc1O` (stereo not drawn) [Salmeterol xinafoate], the 3D7 is listed as 72.5.

Same assay, conditions: repurposing dataset, 179 approved drugs; ref https://www.nature.com/articles/nchembio806; cited from earlier work
In the case of `CCOc1ccc2nc3cc(N)ccc3c(N)c2c1` [Ethacridine lactate], the 3D7 is given as 96.2.
In the case of `O=c1[nH]cc(F)c(=O)[nH]1` [Fluorouracil], the 3D7 is given as 89.2.
For `Fc1ccc(C(c2ccccc2)(c2ccccc2F)n2ccnc2)cc1` (stereo not drawn) [Flutrimazole], the 3D7 is given as 85.2.
In the case of `Nc1ccn([C@@H]2O[C@H](CO)[C@@H](O)C2(F)F)c(=O)n1` [Gemcitabine], the 3D7 is listed as 75.3.
For `CN(C)c1ccc(C(=C2C=CC(=[N+](C)C)C=C2)c2ccc(N(C)C)cc2)cc1` [Gentian violet], the 3D7 is listed as 98.7.
For `N=C(N)N/N=C/c1c(Cl)cccc1Cl` [Guanabenz acetate], the 3D7 is given as 92.7.
For `CCCCC(CC)CN1CN(CC(CC)CCCC)CC(C)(N)C1` (stereo not drawn) [Hexetidine], the 3D7 is listed as 86.2.
For `CC[n+]1c(-c2ccccc2)c2cc(N)ccc2c2ccc(N)cc21` [Homidium bromide], the 3D7 is given as 98.9.
In the case of `CCN(CCO)CCCC(C)Nc1ccnc2cc(Cl)ccc12` (stereo not drawn) [Hydroxychloroquine], the 3D7 is given as 97.7.
For `CC(=O)[C@]1(O)Cc2c(O)c3c(c(O)c2[C@@H](O[C@H]2C[C@H](N)[C@H](O)[C@H](C)O2)C1)C(=O)c1ccccc1C3=O` [Idarubicin], the 3D7 is given as 98.9.
For `CC(C(O)c1ccc(O)cc1)N1CCC(Cc2ccccc2)CC1` (stereo not drawn) [Ifenprodil], the 3D7 is listed as 82.3.
In the case of `CC[C@@H](C(=O)[C@@H](C)[C@@H](O)[C@H](C)CCc1ccc(C)c(O)c1C(=O)O)[C@H]1O[C@](CC)([C@H]2CC[C@](O)(CC)[C@H](C)O2)C[C@@H]1C` [Lasalocid A], the 3D7 is listed as 98.2.
In the case of `CN(C)C(=O)C(CCN1CCC(O)(c2ccc(Cl)cc2)CC1)(c1ccccc1)c1ccccc1` [Loperamide], the 3D7 is listed as 97.7.
For `Cc1cccc(C)c1OCC(=O)N[C@@H](Cc1ccccc1)[C@@H](O)C[C@H](Cc1ccccc1)NC(=O)[C@H](C(C)C)N1CCCNC1=O` [Lopinavir], the 3D7 is given as 84.9.
For `[Cl][Mn][Cl]` [Manganese chloride], the 3D7 is given as 94.1.
For `CN1CCc2c(c3ccccc3n2Cc2ccccc2)C1` [Mebhydrolin], the 3D7 is listed as 57.1.
For `OC(c1cc(C(F)(F)F)nc2c(C(F)(F)F)cccc12)C1CCCCN1` (stereo not drawn) [Mefloquine], the 3D7 is listed as 97.7.
In the case of `N[C@@H](Cc1ccc(N(CCCl)CCCl)cc1)C(=O)O` [Melphalan], the 3D7 is listed as 59.5.
For `S=c1[nH]cnc2nc[nH]c12` [Mercaptopurine], the 3D7 is listed as 91.8.
In the case of `CN1C[C@H](CNC(=O)OCc2ccccc2)C[C@@H]2c3cccc4c3c(cn4C)C[C@H]21` [Metergoline], the 3D7 is listed as 85.9.
For `CN(Cc1cnc2nc(N)nc(N)c2n1)c1ccc(C(=O)N[C@@H](CCC(=O)O)C(=O)O)cc1` [Methotrexate], the 3D7 is given as 98.4.
In the case of `Cc1cc(C(C)(C)CC(C)(C)C)ccc1OCCOCC[N+](C)(C)Cc1ccccc1.[Cl-]` [Methylbenzethonium chloride], the 3D7 is given as 97.7.
In the case of `CN(C)c1ccc2nc3ccc(=[N+](C)C)cc-3sc2c1` [Methylene blue], the 3D7 is given as 98.
For `COCC(=O)O[C@]1(CCN(C)CCCc2nc3ccccc3[nH]2)CCc2cc(F)ccc2[C@@H]1C(C)C` [Mibefradil], the 3D7 is given as 92.
For `CCCCCCCCCCCCCCCCOP(=O)([O-])OCC[N+](C)(C)C` [Miltefosine], the 3D7 is listed as 99.5.
In the case of `O=C1c2c(O)ccc(O)c2C(=O)c2c(NCCNCCO)ccc(NCCNCCO)c21` [Mitoxantrone], the 3D7 is listed as 99.2 and 98.4.
In the case of `COc1c(C)c2c(c(O)c1C/C=C(\C)CCC(=O)O)C(=O)OC2` [Mycophenolic acid], the 3D7 is listed as 92.7.
In the case of `O=[N+]([O-])c1ccc(O)c2ncccc12` [Nitroxoline], the 3D7 is listed as 97.2.
For `COC(=O)[C@@H]1c2cc3c(c(O)c2[C@@H](O[C@@H]2O[C@@H](C)[C@H](OC)[C@@](C)(OC)[C@H]2OC)C[C@]1(C)O)C(=O)c1c(O)cc2c(c1C3=O)O[C@@H]1O[C@@]2(C)[C@H](O)[C@@H](N(C)C)[C@@H]1O` [Nogalamycin], the 3D7 is listed as 85.3.
In the case of `O=C1[O][Pt]2([NH][C@@H]3CCCC[C@H]3[NH]2)[O]C1=O` [Oxaliplatin], the 3D7 is given as 55.4.
In the case of `CC(=O)O[C@H]1C(=O)[C@@]2(C)[C@H]([C@H](OC(=O)c3ccccc3)[C@]3(O)C[C@H](OC(=O)[C@H](O)[C@@H](NC(=O)c4ccccc4)c4ccccc4)C(C)=C1C3(C)C)[C@]1(OC(C)=O)CO[C@@H]1C[C@@H]2O` [Paclitaxel], the 3D7 is listed as 84.5.
For `CC(=O)O[C@H]1C[C@@H]2CC[C@@H]3[C@H](CC[C@@]4(C)[C@H]3C[C@H]([N+]3(C)CCCCC3)[C@@H]4OC(C)=O)[C@@]2(C)C[C@@H]1[N+]1(C)CCCCC1` [Pancuronium bromide], the 3D7 is listed as 52.6.
For `N=C1C=CC(=C(c2ccc(N)cc2)c2ccc(N)cc2)C=C1` [Pararosaniline pamoate], the 3D7 is given as 97.3.
In the case of `Fc1ccc([C@@H]2CCNC[C@H]2COc2ccc3c(c2)OCO3)cc1` [Paroxetine], the 3D7 is listed as 85.4.
For `N=C(N)c1ccc(OCCCCCOc2ccc(C(=N)N)cc2)cc1` [Pentamidine isethionate], the 3D7 is given as 99.1.
In the case of `C1CCC(C(CC2CCCCN2)C2CCCCC2)CC1.O=C(O)/C=C\C(=O)O` (stereo not drawn) [Perhexilline maleate], the 3D7 is listed as 97.5.
In the case of `OCCN1CCN(CCCN2c3ccccc3Sc3ccc(Cl)cc32)CC1` [Perphenazine], the 3D7 is given as 85.6.
For `CN1CCC(=C2c3ccccc3Sc3ccccc32)CC1` [Pimethixene], the 3D7 is given as 75.5.
In the case of `CC(=O)c1ccc2c(c1)N(CCCN1CCC(CCO)CC1)c1ccccc1S2` [Piperacetazine], the 3D7 is listed as 88.5.
For `O.O.O.O=C([O-])[C@H]([O-])[C@@H]([O-])C(=O)[O-].O=C([O-])[C@H]([O-])[C@@H]([O-])C(=O)[O-].[K+].[K+].[Sb+3].[Sb+3]` [Potassium antimonyl tartrate], the 3D7 is listed as 95.5.
In the case of `COc1cc(NC(C)CCCN)c2ncccc2c1` (stereo not drawn) [Primaquine], the 3D7 is given as 99.1.
In the case of `CCCC(C(=O)OCCN(CC)CC)(c1ccccc1)c1ccccc1` [Proadifen], the 3D7 is given as 85.9.
In the case of `Nc1ccc2cc3ccc(N)cc3nc2c1` [Proflavine], the 3D7 is listed as 96.2.
In the case of `CC(C)NCC(O)c1ccc2ccccc2c1` (stereo not drawn) [Pronetalol], the 3D7 is listed as 95.3.
For `CCC(=O)c1ccc2c(c1)N(CC(C)N(C)C)c1ccccc1S2.O=C(O)/C=C\C(=O)O` (stereo not drawn) [Propiomazine maleate], the 3D7 is listed as 77.
In the case of `COc1ccc(C[C@H](N)C(=O)N[C@H]2[C@@H](O)[C@H](n3cnc4c(N(C)C)ncnc43)O[C@@H]2CO)cc1` [Puromycin], the 3D7 is given as 98.9.
In the case of `CCc1nc(N)nc(N)c1-c1ccc(Cl)cc1` [Pyrimethamine], the 3D7 is listed as 96.5.
For `CCN(CC)CCCC(C)Nc1c2ccc(Cl)cc2nc2ccc(OC)cc12` (stereo not drawn) [Quinacrine], the 3D7 is given as 99.2.
In the case of `C=C[C@H]1C[N@@]2CC[C@H]1C[C@@H]2[C@@H](O)c1ccnc2ccc(OC)cc12` [Quinidine], the 3D7 is given as 88.5.
For `C=C[C@H]1CN2CC[C@H]1C[C@H]2[C@H](OC(=O)OCC)c1ccnc2ccc(OC)cc12` [Quinine ethyl carbonate], the 3D7 is given as 94.5.
In the case of `C=C[C@H]1C[N@@]2CC[C@H]1C[C@H]2[C@H](O)c1ccnc2ccc(OC)cc12` [Quinine], the 3D7 is given as 98.3.
For `O=C(c1ccc(OCCN2CCCCC2)cc1)c1c(-c2ccc(O)cc2)sc2cc(O)ccc12` [Raloxifene], the 3D7 is given as 97.1.
In the case of `CO[C@H]1C[C@@H]2CC[C@@H](C)[C@@](O)(O2)C(=O)C(=O)N2CCCC[C@H]2C(=O)O[C@H]([C@H](C)C[C@@H]2CC[C@@H](O)[C@H](OC)C2)CC(=O)[C@H](C)/C=C(\C)[C@@H](O)[C@@H](OC)C(=O)[C@H](C)C[C@H](C)/C=C/C=C/C=C/1C` [Rapamycin], the 3D7 is listed as 51.4.
For `Cc1nc2n(c(=O)c1CCN1CCC(c3noc4cc(F)ccc34)CC1)CCCC2` [Risperidone], the 3D7 is listed as 67.5.
For `CC(C)c1nc(CN(C)C(=O)N[C@H](C(=O)N[C@@H](Cc2ccccc2)C[C@H](O)[C@H](Cc2ccccc2)NC(=O)OCc2cncs2)C(C)C)cs1` [Ritonavir], the 3D7 is given as 84.9.
For `C=CC[N+]1([C@H]2C[C@H]3[C@@H]4CC[C@H]5C[C@H](O)[C@@H](N6CCOCC6)C[C@]5(C)[C@H]4CC[C@]3(C)[C@H]2OC(C)=O)CCCC1` [Rocuronium bromide], the 3D7 is listed as 52.6.
In the case of `CC[C@@H](C(=O)[C@@H](C)[C@@H](O)[C@H](C)[C@@H]1O[C@@H]([C@@H](CC)C(=O)O)CC[C@@H]1C)[C@H]1O[C@]2(C=C[C@@H](O)[C@]3(CC[C@@](C)([C@H]4CC[C@](O)(CC)[C@H](C)O4)O3)O2)[C@H](C)C[C@@H]1C` [Salinomycin], the 3D7 is given as 99.1.
In the case of `CC(=O)[O][Pt]([NH2])([Cl])([Cl])([NH]C1CCCCC1)[O]C(C)=O` [Satraplatin], the 3D7 is given as 87.3.
For `CCCCCCCCCCCCCCCCCC[N+](C)(C)C.[Cl-]` [Stearyltrimethylammonium chloride], the 3D7 is listed as 78.6.
For `CCCCCCCCNC(C)C(O)c1ccc(SC(C)C)cc1` (stereo not drawn) [Suloctidil], the 3D7 is given as 97.3.
For `CO[C@@H]1[C@H](OC(=O)NC(=O)CCl)CC[C@]2(CO2)[C@H]1[C@@]1(C)O[C@@H]1CC=C(C)C` [TNP-470], the 3D7 is listed as 67.
For `CC/C(=C(\c1ccccc1)c1ccc(OCCN(C)C)cc1)c1ccccc1` [Tamoxifen], the 3D7 is given as 97.5.
For `CC(C)N1CCN(c2ccc(OCC3COC(Cn4cncn4)(c4ccc(Cl)cc4Cl)O3)cc2)CC1` (stereo not drawn) [Terconazole], the 3D7 is given as 56.
For `Nc1nc2nc[nH]c2c(=S)[nH]1` [Thioguanine], the 3D7 is given as 68.7.
For `CN(C)C(=S)SSC(=S)N(C)C` [Thiram], the 3D7 is listed as 96.7.
In the case of `CCCCCCCCCCCCCCCC[N+](C)(C)CCN(Cc1ccc(OC)cc1)c1ncccn1` [Thonzonium bromide], the 3D7 is given as 97.5.
For `CCN(CC)CCOc1ccc2c(c1)C(=O)c1cc(OCCN(CC)CC)ccc1-2` [Tilorone], the 3D7 is listed as 98.9.
In the case of `CC[C@@]1(O)C(=O)OCc2c1cc1n(c2=O)Cc2cc3c(CN(C)C)c(O)ccc3nc2-1` [Topotecan], the 3D7 is listed as 80.1.
In the case of `Nc1nc(N)c2nc(-c3ccccc3)c(N)nc2n1` [Triamterene], the 3D7 is given as 79.4.
